{"source": "patent US11141413B2", "about": "“Method of treating renal cell carcinoma using N-(4-(6,7-dimethoxyquinolin-4-yloxy)phenyl)-N′-(4-fluorophenyl)cyclopropane-1,1-dicarboxamide, (2S)-hydroxybutanedioate” (Exelixis, Inc., priority 2016, dated 2021)", "system": "patients with advanced renal cell carcinoma", "conditions": "human, in vivo", "experimental": "Treatment modifications, including interruptions and dose reductions, were allowed to manage adverse events. […] Patients were allowed to continue study treatment beyond radiographic progression at the discretion of the investigator. On-study crossover between treatment groups was not permitted. Safety evaluations, including physical examination, vital signs, and laboratory assessments, were conducted every 2 weeks for the first 8 weeks and then every 4 weeks thereafter. ECG assessments were performed every 4 weeks for the first 8 weeks and then every 12 weeks. A safety follow-up visit was scheduled 30 days after treatment discontinuation. Adverse events were assessed by investigators and graded according to CTCAE version 4.0.\nSafety analyses were limited to patients who received any amount of study treatment."}
{"smiles": "CO[C@H]1C[C@@H]2CC[C@@H](C)[C@@](O)(O2)C(=O)C(=O)N2CCCC[C@H]2C(=O)O[C@H]([C@H](C)C[C@@H]2CC[C@@H](OCCO)[C@H](OC)C2)CC(=O)[C@H](C)/C=C(\\C)[C@@H](O)[C@@H](OC)C(=O)[C@H](C)C[C@H](C)/C=C/C=C/C=C/1C", "note": "[everolimus]", "values": [{"measurement": "ALP increased, All Grades", "value": 29, "unit": "%"}, {"measurement": "ALP increased, Grade 3-4", "value": 1, "unit": "%"}, {"measurement": "ALT increased, All Grades", "value": 32, "unit": "%"}, {"measurement": "ALT increased, Grade 3-4", "value": "<1", "unit": "%"}, {"measurement": "AST increased, All Grades", "value": 40, "unit": "%"}, {"measurement": "AST increased, Grade 3-4", "value": "<1", "unit": "%"}, {"measurement": "Abdominal pain, All Grades", "value": 13, "unit": "%"}, {"measurement": "Abdominal pain, Grade 1-2", "value": "27 (8) n (%)"}, {"measurement": "Abdominal pain, Grade 3", "value": "5 (2) n (%)"}, {"measurement": "Abdominal pain, Grade 3-4", "value": 2, "unit": "%"}, {"measurement": "Abdominal pain, Grade 4", "value": "0 n (%)"}, {"measurement": "Absolute neutrophil count decreased, All Grades", "value": 17, "unit": "%"}, {"measurement": "Absolute neutrophil count decreased, Grade 3-4", "value": "<1", "unit": "%"}, {"measurement": "Adverse reactions led to study treatment being held", "value": 59, "unit": "%"}, {"measurement": "Adverse reactions led to study treatment discontinuation", "value": 10, "unit": "%"}, {"measurement": "Alanine aminotransferase increased, Grade 1-2", "value": "20 (6) n (%)"}, {"measurement": "Alanine aminotransferase increased, Grade 3", "value": "1 (<1) n (%)"}, {"measurement": "Alanine aminotransferase increased, Grade 4", "value": "0 n (%)"}, {"measurement": "Anemia, All Grades", "value": 38, "unit": "%"}, {"measurement": "Anemia, Grade 1-2", "value": "73 (23) n (%)"}, {"measurement": "Anemia, Grade 3", "value": "53 (17) n (%)"}, {"measurement": "Anemia, Grade 3-4", "value": 16, "unit": "%"}, {"measurement": "Anemia, Grade 4", "value": "0 n (%)"}, {"measurement": "Anemia, all grades", "value": "126 (39%) n (%)"}, {"measurement": "Anemia, grade 3 or 4", "value": "53 [17%] n [%]"}, {"measurement": "Any AE, Grade 1-2", "value": "103 (32) n (%)"}, {"measurement": "Any AE, Grade 3", "value": "167 (52) n (%)"}, {"measurement": "Any AE, Grade 4", "value": "26 (8) n (%)"}, {"measurement": "Arthralgia, All Grades", "value": 14, "unit": "%"}, {"measurement": "Arthralgia, Grade 1-2", "value": "46 (14) n (%)"}, {"measurement": "Arthralgia, Grade 3", "value": "4 (1) n (%)"}, {"measurement": "Arthralgia, Grade 3-4", "value": 1, "unit": "%"}, {"measurement": "Arthralgia, Grade 4", "value": "0 n (%)"}, {"measurement": "Aspartate aminotransferase increased, Grade 1-2", "value": "19 (6) n (%)"}, {"measurement": "Aspartate aminotransferase increased, Grade 3", "value": "1 (<1) n (%)"}, {"measurement": "Aspartate aminotransferase increased, Grade 4", "value": "0 n (%)"}, {"measurement": "Asthenia, All Grades", "value": 16, "unit": "%"}, {"measurement": "Asthenia, Grade 1-2", "value": "46 (14) n (%)"}, {"measurement": "Asthenia, Grade 3", "value": "8 (3) n (%)"}, {"measurement": "Asthenia, Grade 3-4", "value": 2, "unit": "%"}, {"measurement": "Asthenia, Grade 4", "value": "0 n (%)"}, {"measurement": "Back pain, Grade 1-2", "value": "41 (13) n (%)"}, {"measurement": "Back pain, Grade 3", "value": "7 (2) n (%)"}, {"measurement": "Back pain, Grade 4", "value": "0 n (%)"}, {"measurement": "Blood creatinine increased, Grade 1-2", "value": "39 (12) n (%)"}, {"measurement": "Blood creatinine increased, Grade 3", "value": "0 n (%)"}, {"measurement": "Blood creatinine increased, Grade 4", "value": "0 n (%)"}, {"measurement": "Constipation, All Grades", "value": 19, "unit": "%"}, {"measurement": "Constipation, Grade 1-2", "value": "64 (20) n (%)"}, {"measurement": "Constipation, Grade 3", "value": "1 (<1) n (%)"}, {"measurement": "Constipation, Grade 3-4", "value": "<1", "unit": "%"}, {"measurement": "Constipation, Grade 4", "value": "0 n (%)"}, {"measurement": "Cough, All Grades", "value": 33, "unit": "%"}, {"measurement": "Cough, Grade 1-2", "value": "107 (33) n (%)"}, {"measurement": "Cough, Grade 3", "value": "3 (<1) n (%)"}, {"measurement": "Cough, Grade 3-4", "value": "<1", "unit": "%"}, {"measurement": "Cough, Grade 4", "value": "0 n (%)"}, {"measurement": "Creatinine increased, All Grades", "value": 71, "unit": "%"}, {"measurement": "Creatinine increased, Grade 3-4", "value": 0, "unit": "%"}, {"measurement": "Decreased appetite, All Grades", "value": 34, "unit": "%"}, {"measurement": "Decreased appetite, Grade 1-2", "value": "111 (35) n (%)"}, {"measurement": "Decreased appetite, Grade 3", "value": "3 (<1) n (%)"}, {"measurement": "Decreased appetite, Grade 3-4", "value": "<1", "unit": "%"}, {"measurement": "Decreased appetite, Grade 4", "value": "0 n (%)"}, {"measurement": "Decreased appetite, all grades", "value": "114 (3-5%) n (%)"}, {"measurement": "Diarrhea, All Grades", "value": 28, "unit": "%"}, {"measurement": "Diarrhea, Grade 1-2", "value": "85 (26) n (%)"}, {"measurement": "Diarrhea, Grade 3", "value": "7 (2) n (%)"}, {"measurement": "Diarrhea, Grade 3-4", "value": 2, "unit": "%"}, {"measurement": "Diarrhea, Grade 4", "value": "0 n (%)"}, {"measurement": "Discontinuation due to a primary reason of AE (excluding disease progression)", "value": 10, "unit": "%"}, {"measurement": "Dizziness, All Grades", "value": 7, "unit": "%"}, {"measurement": "Dizziness, Grade 1-2", "value": "21 (7) n (%)"}, {"measurement": "Dizziness, Grade 3", "value": "0 n (%)"}, {"measurement": "Dizziness, Grade 3-4", "value": 0, "unit": "%"}, {"measurement": "Dizziness, Grade 4", "value": "0 n (%)"}, {"measurement": "Dry skin, All Grades", "value": 10, "unit": "%"}, {"measurement": "Dry skin, Grade 1-2", "value": "35 (11) n (%)"}, {"measurement": "Dry skin, Grade 3", "value": "0 n (%)"}, {"measurement": "Dry skin, Grade 3-4", "value": 0, "unit": "%"}, {"measurement": "Dry skin, Grade 4", "value": "0 n (%)"}, {"measurement": "Dysgeusia, All Grades", "value": 9, "unit": "%"}, {"measurement": "Dysgeusia, Grade 1-2", "value": "30 (9) n (%)"}, {"measurement": "Dysgeusia, Grade 3", "value": "0 n (%)"}, {"measurement": "Dysgeusia, Grade 3-4", "value": 0, "unit": "%"}, {"measurement": "Dysgeusia, Grade 4", "value": "0 n (%)"}, {"measurement": "Dyspepsia, All Grades", "value": 5, "unit": "%"}, {"measurement": "Dyspepsia, Grade 1-2", "value": "15 (5) n (%)"}, {"measurement": "Dyspepsia, Grade 3", "value": "0 n (%)"}, {"measurement": "Dyspepsia, Grade 3-4", "value": 0, "unit": "%"}, {"measurement": "Dyspepsia, Grade 4", "value": "0 n (%)"}, {"measurement": "Dysphonia, All Grades", "value": 4, "unit": "%"}, {"measurement": "Dysphonia, Grade 1-2", "value": "16 (5) n (%)"}, {"measurement": "Dysphonia, Grade 3", "value": "0 n (%)"}, {"measurement": "Dysphonia, Grade 3-4", "value": 0, "unit": "%"}, {"measurement": "Dysphonia, Grade 4", "value": "0 n (%)"}, {"measurement": "Dyspnea, All Grades", "value": 29, "unit": "%"}, {"measurement": "Dyspnea, Grade 3-4", "value": 4, "unit": "%"}, {"measurement": "Dyspnoea, Grade 1-2", "value": "82 (26) n (%)"}, {"measurement": "Dyspnoea, Grade 3", "value": "11 (3) n (%)"}, {"measurement": "Dyspnoea, Grade 4", "value": "3 (<1) n (%)"}, {"measurement": "Edema peripheral, Grade 1-2", "value": "70 (22) n (%)"}, {"measurement": "Edema peripheral, Grade 3", "value": "6 (2) n (%)"}, {"measurement": "Edema peripheral, Grade 4", "value": "0 n (%)"}, {"measurement": "Epistaxis, Grade 1-2", "value": "46 (14) n (%)"}, {"measurement": "Epistaxis, Grade 3", "value": "0 n (%)"}, {"measurement": "Epistaxis, Grade 4", "value": "0 n (%)"}, {"measurement": "Events of arterial thromboembolism", "value": 0.3, "unit": "%"}, {"measurement": "Fatigue, All Grades", "value": 47, "unit": "%"}, {"measurement": "Fatigue, Grade 1-2", "value": "130 (40) n (%)"}, {"measurement": "Fatigue, Grade 3", "value": "24 (8) n (%)"}, {"measurement": "Fatigue, Grade 3-4", "value": 7, "unit": "%"}, {"measurement": "Fatigue, Grade 4", "value": "0 n (%)"}, {"measurement": "Fatigue, all grades", "value": "154 (48%) n (%)"}, {"measurement": "Fatigue, grade 3 or 4", "value": "24 [7%] n [%]"}, {"measurement": "Fistulas", "value": 0, "unit": "%"}, {"measurement": "Flatulence, Grade 1-2", "value": "7 (2) n (%)"}, {"measurement": "Flatulence, Grade 3", "value": "0 n (%)"}, {"measurement": "Flatulence, Grade 4", "value": "0 n (%)"}, {"measurement": "GGT increased, All Grades", "value": 43, "unit": "%"}, {"measurement": "GGT increased, Grade 3-4", "value": 9, "unit": "%"}, {"measurement": "Gastrointestinal (GI) perforations", "value": 0.6, "unit": "%"}]}
